Assay results as given in US20220031800A1, “PEPTIDES FOR TREATING NON-EXUDATIVE MACULAR DEGENERATION AND OTHER DISORDERS OF THE EYE” (Allegro Pharmaceuticals, LLC, priority 2019, published 2022).
Square brackets hold non-standard residues; d marks the D form. Peptide text beside a SMILES is read from it. Cya = N[C@@H](CS(=O)(=O)O)C(=O)O

What was measured:
OIR mouse retina = experiment: RNA-seq gene expression in OIR mouse retina after intravitreal injection; type: in vivo; conditions: 10 μg/1 μL single intravitreal injection
Text: Purpose: This study used RNA-seq to identify the genes regulated in the mouse retina following risuteganib intravitreal injection. Analysis of the specific genes regulated by risuteganib enables identification of biological processes and pathways modulated by the oligopeptide. […] Risuteganib causes reduced leukocyte attachment, reduced leukocyte trans-endothelial migration and reduced expression of complement 3 receptor. Methods: OIR mouse pups received 5 days of hyperoxia (75% O2) to obliterate developing retinal vessels. Following their return to room air, retinal neovascularization develops due to an imbalance in oxygen supply and demand. At the time of return to room air, both eyes of OIR pups received either vehicle injection or a single intravitreal injection of risuteganib solution at concentration of 10 μg/1 μL. A separate group of pups raised at room air served as control and received either vehicle or risuteganib solution injection consistent with the OIR mouse group. 5 days after injection, at the height of retinal neovascularization in OIR mice, all mice are sacrificed, retina tissue extracted for RNA isolation and RNA-seq. The generated reads were then aligned to the mouse reference genome/transcriptome and gene expression quantified for differential expression analysis and fold change calculation. The list of regulated genes was then submitted to identify biological processes and pathways that are regulated after risuteganib exposure compared to vehicle control in OIR mice or control mice, and in OIR retina compared to control retina that both received vehicle injections.

[1] = tested on: study eye of subjects with intermediate non-exudative AMD; experiment: Best corrected visual acuity (BCVA, letters read) in Dry AMD study; type: in vivo, human; conditions: for Proportion of subjects with gain of at least 8 BCVA letters read: post hoc
Method: The subjects in Groups 1 and 2 received the following treatments: Thus, subjects in Group 1 received an initial sham injection in the study eye followed by a single 1 mg dose of risuteganib in the study eye. The subjects in Group 2 received a total of two (2) doses of risuteganib (1 mg per dose) in the study eye. Numerous study assessments were conducted at various time points throughout the study. Included among these study assessments were; refractive eye examinations, determinations of BCVA AND low-luminance BCVA, Lanthony D-15 color vision test, measurement of intraocular pressure (IOP), Indirect ophthalmoscopy/dilated fundus examinations and spectral-domain optical coherence tomography (SD-OCT). Also, blood and saliva samples were obtained from each subject for genetic analysis. The above-listed study assessments were performed at the time points indicated in Table 1, below: For this study, a primary efficacy endpoint was deemed to be the percentage of population with an improvement in BCVA of at least 8 letters (1.5 lines) BCVA.

[2] = Week 4, Group 2 (1 mg IVT day 1 + wk 16), subset gain ≥8 letters at any week, n = 14
[3] = Week 4, Group 2 (1 mg IVT day 1 + wk 16), subset gain ≥8 letters at primary endpoint week, n = 12
[4] = Week 8, Group 2 (1 mg IVT day 1 + wk 16), subset gain ≥8 letters at any week, n = 14
[5] = Week 8, Group 2 (1 mg IVT day 1 + wk 16), subset gain ≥8 letters at primary endpoint week, n = 12
[6] = Week 12, Group 2 (1 mg IVT day 1 + wk 16), subset gain ≥8 letters at any week, n = 14
[7] = Week 12, Group 2 (1 mg IVT day 1 + wk 16), subset gain ≥8 letters at primary endpoint week, n = 12
[8] = Week 16, Group 2 (1 mg IVT day 1 + wk 16), subset gain ≥8 letters at any week, n = 14
[9] = Week 16, Group 2 (1 mg IVT day 1 + wk 16), subset gain ≥8 letters at primary endpoint week, n = 12
[10] = Week 20, Group 1 crossover (sham day 1, 1 mg IVT wk 16), subset gain ≥8 letters at any week, n = 3
[11] = Week 20, Group 1 crossover (sham day 1, 1 mg IVT wk 16), subset gain ≥8 letters at primary endpoint week, n = 2
[12] = Week 20, Group 2 (1 mg IVT day 1 + wk 16), subset gain ≥8 letters at any week, n = 14
[13] = Week 20, Group 2 (1 mg IVT day 1 + wk 16), subset gain ≥8 letters at primary endpoint week, n = 12
[14] = Week 24, Group 1 crossover (sham day 1, 1 mg IVT wk 16), subset gain ≥8 letters at any week, n = 3
[15] = Week 24, Group 1 crossover (sham day 1, 1 mg IVT wk 16), subset gain ≥8 letters at primary endpoint week, n = 2
[16] = Week 24, Group 2 (1 mg IVT day 1 + wk 16), subset gain ≥8 letters at any week, n = 14
[17] = Week 24, Group 2 (1 mg IVT day 1 + wk 16), subset gain ≥8 letters at primary endpoint week, n = 12
[18] = Week 28, Group 1 crossover (sham day 1, 1 mg IVT wk 16), subset gain ≥8 letters at any week, n = 3
[19] = Week 28, Group 1 crossover (sham day 1, 1 mg IVT wk 16), subset gain ≥8 letters at primary endpoint week, n = 2
[20] = Week 28, Group 2 (1 mg IVT day 1 + wk 16), n = 25
[21] = Week 28, Group 2 (1 mg IVT day 1 + wk 16), subset gain ≥8 letters at any week, n = 14
[22] = Week 28, Group 2 (1 mg IVT day 1 + wk 16), subset gain ≥8 letters at primary endpoint week, n = 12
[23] = Week 28 vs baseline, Group 2 (1 mg IVT day 1 + wk 16), n = 25
[24] = Week 32, Group 1 crossover (sham day 1, 1 mg IVT wk 16), subset gain ≥8 letters at any week, n = 3
[25] = Week 32, Group 1 crossover (sham day 1, 1 mg IVT wk 16), subset gain ≥8 letters at primary endpoint week, n = 2
[26] = Week 32, Group 2 (1 mg IVT day 1 + wk 16), subset gain ≥8 letters at any week, n = 14
[27] = Week 32, Group 2 (1 mg IVT day 1 + wk 16), subset gain ≥8 letters at primary endpoint week, n = 12
[28] = risuteganib eyes with geographic atrophy in foveal center at baseline (n = 2)
[29] = risuteganib eyes with no geographic atrophy in foveal center at baseline (n = 23)

## C[C@@H](O)[C@H](NC(=O)[C@H](CS(=O)(=O)O)NC(=O)CNC(=O)[C@H](CCCNC(=N)N)NC(=O)CN)C(=O)N1CCC[C@H]1C(=O)O [risuteganib, Glycyl-L-arginylglycyl-3-sulfo-L-alanyl-L-threonyl-L-proline] (H-GRG[Cya]TP-OH)
OIR mouse retina; 5 days after injection, vs vehicle
  Number of genes regulated in the OIR retina with statistical significance: around 600 genes
OIR mouse retina; OIR retina, 5 days after injection
  Expression of integrin subunits α5, α6, αM, β1, β2, and β5: down regulated
OIR mouse retina; OIR retina, 10 of them up-regulated in OIR retina
  Number of biological pathways down-regulated: 11
[1]; BCVA, after each 1 mg intravitreal dose
  Time of peak effect after treatment: 12 weeks
[1]; Group 2, GA Subgroup (GA in central 6-mm subfield)
  Proportion of subjects with gain of at least 8 BCVA letters read: 40%
[1]; Group 2, No GA Subgroup (no GA in central 6-mm subfield)
  Proportion of subjects with gain of at least 8 BCVA letters read: 80%
[1]; [2]
  BCVA change in letters read, mean: 4.0 letters read
  BCVA change in letters read, median: 3.0 letters read
  BCVA letters read, mean: 66.5 letters read
  BCVA letters read, median: 67.0 letters read
[1]; [3]
  BCVA change in letters read, mean: 4.1 letters read
  BCVA change in letters read, median: 3.0 letters read
  BCVA letters read, mean: 67.0 letters read
  BCVA letters read, median: 68.5 letters read
[1]; [4]
  BCVA change in letters read, mean: 5.8 letters read
  BCVA change in letters read, median: 5.5 letters read
  BCVA letters read, mean: 68.3 letters read
  BCVA letters read, median: 71.0 letters read
[1]; [5]
  BCVA change in letters read, mean: 5.6 letters read
  BCVA change in letters read, median: 5.5 letters read
  BCVA letters read, mean: 68.5 letters read
  BCVA letters read, median: 72.0 letters read
[1]; [6]
  BCVA change in letters read, mean: 7.1 letters read
  BCVA change in letters read, median: 5.5 letters read
  BCVA letters read, mean: 69.6 letters read
  BCVA letters read, median: 69.5 letters read
[1]; [7]
  BCVA change in letters read, mean: 7.7 letters read
  BCVA change in letters read, median: 5.5 letters read
  BCVA letters read, mean: 70.6 letters read
  BCVA letters read, median: 72.0 letters read
[1]; [8]
  BCVA change in letters read, mean: 6.4 letters read
  BCVA change in letters read, median: 8.0 letters read
  BCVA letters read, mean: 68.9 letters read
  BCVA letters read, median: 69.5 letters read
[1]; [9]
  BCVA change in letters read, mean: 6.3 letters read
  BCVA change in letters read, median: 8.0 letters read
  BCVA letters read, mean: 69.2 letters read
  BCVA letters read, median: 70.5 letters read
[1]; [10]
  BCVA change in letters read, mean: 2.0 letters read
  BCVA change in letters read, median: 0.0 letters read
  BCVA letters read, mean: 71.7 letters read
  BCVA letters read, median: 75.0 letters read
[1]; [11]
  BCVA change in letters read, mean: 0.0 letters read
  BCVA change in letters read, median: 0.0 letters read
  BCVA letters read, mean: 70.0 letters read
  BCVA letters read, median: 70.0 letters read
[1]; [12]
  BCVA change in letters read, mean: 9.8 letters read
  BCVA change in letters read, median: 10.0 letters read
  BCVA letters read, mean: 72.3 letters read
  BCVA letters read, median: 74.5 letters read
[1]; [13]
  BCVA change in letters read, mean: 11.3 letters read
  BCVA change in letters read, median: 10.0 letters read
  BCVA letters read, mean: 74.2 letters read
  BCVA letters read, median: 75.0 letters read
[1]; [14]
  BCVA change in letters read, mean: 8.7 letters read
  BCVA change in letters read, median: 10.0 letters read
  BCVA letters read, mean: 78.3 letters read
  BCVA letters read, median: 79.0 letters read
[1]; [15]
  BCVA change in letters read, mean: 8.0 letters read
  BCVA change in letters read, median: 8.0 letters read
  BCVA letters read, mean: 78.0 letters read
  BCVA letters read, median: 78.0 letters read
[1]; [16]
  BCVA change in letters read, mean: 10.2 letters read
  BCVA change in letters read, median: 9.5 letters read
  BCVA letters read, mean: 72.7 letters read
  BCVA letters read, median: 74.5 letters read
[1]; [17]
  BCVA change in letters read, mean: 11.4 letters read
  BCVA change in letters read, median: 10.0 letters read
  BCVA letters read, mean: 74.3 letters read
  BCVA letters read, median: 75.5 letters read
[1]; [18]
  BCVA change in letters read, mean: 8.0 letters read
  BCVA change in letters read, median: 9.0 letters read
  BCVA letters read, mean: 77.7 letters read
  BCVA letters read, median: 74.0 letters read
[1]; [19]
  BCVA change in letters read, mean: 9.5 letters read
  BCVA change in letters read, median: 9.5 letters read
  BCVA letters read, mean: 79.5 letters read
  BCVA letters read, median: 79.5 letters read
[1]; [20]
  BCVA letters read at primary endpoint week, mean: 70.5 letters read
  BCVA letters read at primary endpoint week, median: 71.0 letters read
[1]; [21]
  BCVA change in letters read, mean: 11.4 letters read
  BCVA change in letters read, median: 11.5 letters read
  BCVA letters read, mean: 73.9 letters read
  BCVA letters read, median: 74.5 letters read
[1]; [22]
  BCVA change in letters read, mean: 12.8 letters read
  BCVA change in letters read, median: 12.0 letters read
  BCVA letters read, mean: 75.7 letters read
  BCVA letters read, median: 75.5 letters read
[1]; [23]
  BCVA change in letters read at primary endpoint week, mean: 6.1 letters read
  BCVA change in letters read at primary endpoint week, median: 6.0 letters read
[1]; [24]
  BCVA change in letters read, mean: 6.3 letters read
  BCVA change in letters read, median: 6.0 letters read
  BCVA letters read, mean: 76.0 letters read
  BCVA letters read, median: 75.0 letters read
[1]; [25]
  BCVA change in letters read, mean: 6.5 letters read
  BCVA change in letters read, median: 6.5 letters read
  BCVA letters read, mean: 76.5 letters read
  BCVA letters read, median: 76.5 letters read
[1]; [26]
  BCVA change in letters read, mean: 8.2 letters read
  BCVA change in letters read, median: 9.5 letters read
  BCVA letters read, mean: 70.7 letters read
  BCVA letters read, median: 73.0 letters read
[1]; [27]
  BCVA change in letters read, mean: 9.5 letters read
  BCVA change in letters read, median: 10.5 letters read
  BCVA letters read, mean: 72.4 letters read
  BCVA letters read, median: 74.0 letters read
[1]; [28]
  ≥10 Letter Improvement in Visual Acuity, %: (50) %
  ≥15 Letter Improvement in Visual Acuity, %: (0) %
[1]; [29]
  ≥10 Letter Improvement in Visual Acuity, %: (30) %
  ≥15 Letter Improvement in Visual Acuity, %: (22) %
